Assay results as given in US11932654B2, “Nimbolide analogs as anti-cancer agents and preparation thereof” (priority 2018, dated 2024).

Legend:
[1] = test system: PC3 prostate cancer cell line; assay: In vitro anticancer activity, SRB assay, PC3; format: cell-based; settings: 48 h, NA = Not Active
Protocol: (§1) Cell culture: Human lung adenocarcinoma cell line (A549 cell line), pancreatic cancer cell line (Panc-1, Pan-02), prostate cancer cell line (DU145, PC3), Brest cancer cell line (MCF-7) was grown in DIEM (Dulbecco's modifications of eagle's medium with L-glutamine & 4.5 g/L glucose) supplemented with fetal bovine serum in a humidified atmosphere of a 5% CO2 at 37° C.
(§2) In vitro anticancer activity: Cells were harvested from exponential phase cultures by trypsinization, counted and plated in 96-well plate. Optimal seeding densities for different cell lines in each plate were 5000 cells per well. After 24 h cells were treated with \ the newly synthesized compound at a dose range of 0.1-100 μm final concentration. Thereafter, cells were allowed to grow for 48 h before determination of cell survival by the SRB assay. Then the cells were fixed with 10% cold trichloroacetic acid for 1 h at 4° C. After two washes with deionized water, fixed cells were stained with 50 μL of SRB solution (1% in acetic acid) for 30 min and subsequently washed twice with 1% acetic acid to remove unbound stain. The plates were left to dry at room temperature and bound stain was solubilized with 100 μL of 10 mM buffered Tris base for reading the […] at 540 nm.

[2] = test system: Pan-02 cells xenograft tumors; assay: Pancreatic cancer xenograft model, anti-tumor activity; format: in vivo, nude mice; settings: for Tumor Volume: 5 doses in 12 days, Pan-02 xenograft, mean ± SE
Protocol: In vivo studies: Materials and methods: Animals and cell lines: Healthy 8-10 week old nude mice of either sex, weighing between 20 g and 25 g were used as experimental animals for tumor induction. All animals were maintained under standardized animal house conditions (12 h light and 12 h dark condition) at controlled temperature (22±1° C.) and relative humidity (60-70%) in institutional registered animal house that was approved by Committee for the Purpose of Control and Supervision of Experiments on Animals (CPCSEA). They were maintained with standard pellet diet and water ad libitum. The institutional animal ethics committee approved the experimental protocol. CPCSEA guidelines were adhered to during the maintenance of animals and experiments. Pancreatic cancer cell line (Pan-02) was obtained from American Type Culture Collection and was cultured in RPMI medium.
(§3) Establishment of Pancreatic cancer xenograft model: To establish tumor in mice, Pan-02 cells (7×10^6) were suspended in 1:1 RPMI medium mixed with matrigel and subcutaneously implanted on right flank of the each mice. The injection sites were examined daily for the appearance of tumors. On 10th day these animals were randomized and divided into 3 groups (6 mice in each group). Group I served as control group received 20% ethanol three times in a week. Test group animals in Group II and III received intratumoral injection of IM-1372-Kn-13 at 10 mg and 25 mg/kg body weight respectively three times in a week. All groups received 5 repeated doses in 12 days. Mice were weighed and tumor volumes were measured 3 times a week by Vernier caliper. Tumor volume in individual mice was calculated by the following formula. 0.5×L (W)^2, Where L is length, W is width of the tumor. The control group animals were euthanized when tumor volume is reached heavier to animal. One-week after completion of treatment period, the animals were sacrificed, and tumors were excised, fixed, and embedded in paraffin. At the end of treatment, blood samples were collected to perform clinical biochemistry.

[3] = Biochemical analysis of serum of tumor xenograft mice; format: in vivo, nude mice; settings: for Albumin / Alkaline phosphatase / Creatinine / Glucose / SGOT / SGPT / Total protein / Urea: xenograft mice, mean ± SE
Protocol: as §3
Biochemical analysis: In acute toxicity experiment, blood samples were collected from all the animals 1 week after the last dose and mice were sacrificed by cervical decapitation. The obtained serum was analyzed in clinical chemistry for the assessment of liver function tests (LFT), activity of serum alkaline phosphatase (ALP), alanine aminotransferase (ALT), aspartate aminotransferase (AST), kidney function tests (RFT) (serum urea and creatinine). The same tests were performed for serum samples collected from three groups of tumor xenograft mice used for determining in vivo activity of test compound against pancreatic cancer. The measurement of these biochemical parameters was done in Clinical Biochemical analyzer (Tulip coralab 3000™).

[4] = test system: Pan-02 cells xenograft tumors; assay: Histopathological examination of tumors and organs of xenograft mice; format: in vivo, nude mice
Protocol: as §3

p27 = assay: Western blotting analysis on Panc-1 cell line, p27; format: cell-based; settings: panc-1 cells, various concentrations, 24 h, Western blot
Protocol: Western blotting analysis of IM-1372-Kn-13 on Panc-1 cell line: The cells were lysed in RIPA buffer (50 mM-tris (PH-7.4), 150 Min-Nacl, 1%-NP-40, 0.1%-SDS, 0.5%-Sodium-deoxycholate, 1 mM EDTA, 5 mM NaF, 5 mM Na—O-vandate, 1 mM PMSF, Protease inhibitor cocktail. The lysates were cleared by centrifugation at […] and concentration of protein was estimated by bradford assay. For Western blot analysis, equivalent amount of protein was resolved in SDS-PAGE and then transferred to polyvinylidene difluoride ([…]) membrane. Ti avoid non specific binding of antibodies, the membranes were blocked using 3% BSA in TBS with 0.5% Tween (TBST) for 1 h at room temperature. The membranes were then incubated in primary antibody overnight at 4° C. After removing excess primary antibody bound to membranes, blots were incubated with secondary anti body. Then the signal emitted was captured using chemiluminescence substrate.

[5] = test system: MCF-7 breast cancer cell line; assay: In vitro anticancer activity, SRB assay, MCF-7; format: cell-based; settings: Homo sapiens, MCF7, 48 h, NA = Not Active
Protocol: as §1, §2

COC(=O)C[C@H]1[C@]2(C)C3=C(C)[C@H](C4=CC5OC4C(C(=O)OC)=C5C(=O)OC)C[C@@H]3O[C@@H]2[C@@H]2OC(=O)[C@]3(C)C=CC(=O)[C@@]1(C)C23 (stereo partly drawn) [A4]
IC50 [1]: 1.4 µM | Tumor Volume ([2]; 10 mg/kg intratumoral, nude mice): 181.306 ± 12.7 mm^3 | body weight and food intake ([2]; 10 mg/kg, 25 mg/kg body weight, intratumoral, nude mice): did not cause any loss in body weight and food intake | Tumor Volume ([2]; 25 mg/kg intratumoral, nude mice): 109.46 ± 7.1 mm^3 | average volume of tumors compared to vehicle-treated animals ([2]; 10 and 25 mg/kg intratumoral, p<0.0001): significantly decreased | serum total protein and albumin levels ([3]; group II and III compared to control group I): significantly increased | serum ALT, AST and ALP enzyme activities ([3]; treated xenograft groups vs elevated control group I): returned to normal | elevated levels of serum urea and creatinine ([3]; tumor-bearing mice, compared to group I): significantly fetched down | Albumin ([3]; 10 mg/kg): 3.16 ± 0.2 g/dL | Alkaline phosphatase ([3]; 10 mg/kg): 685.26 ± 28.8 U/L | Creatinine ([3]; 10 mg/kg): 1.56 ± 0.4 mg/dL | Glucose ([3]; 10 mg/kg): 77.60 ± 3.0 mg/dL | SGOT ([3]; 10 mg/kg): 56.12 ± 5.8 U/L | SGPT ([3]; 10 mg/kg): 47.05 ± 5.8 U/L | Total protein ([3]; 10 mg/kg): 6.24 ± 0.5 g/dL | Urea ([3]; 10 mg/kg): 46.81 ± 5.8 mg/dL | Albumin ([3]; 25 mg/kg): 3.61 ± 0.1 g/dL | Alkaline phosphatase ([3]; 25 mg/kg): 545.63 ± 24.9 U/L | Creatinine ([3]; 25 mg/kg): 0.80 ± 0.1 mg/dL | Glucose ([3]; 25 mg/kg): 108.42 ± 4.7 mg/dL | SGOT ([3]; 25 mg/kg): 32.20 ± 2.4 U/L | SGPT ([3]; 25 mg/kg): 24.49 ± 4.0 U/L | Total protein ([3]; 25 mg/kg): 8.05 ± 0.3 g/dL | Urea ([3]; 25 mg/kg): 41.23 ± 3.7 mg/dL | animals showing liver metastasis ([4]; printed 'group I' (control group: 50%)): 10 % of animals | metastatic invasion in liver, kidney and spleen ([4]; printed 'group II'): no metastatic invasion was found | liver metastasis in treated animals ([4]; treated xenograft animals vs control group): no liver metastasis | effect on the other tissues of xenograft mice ([4]; xenograft mice, intratumoral): did not show any effect | expression of p27 protein (p27): reduced | IC50 [5]: 12.5 µM
